Experimental data as given in patent US20100234593A1, “Imidazo[4,5-B]Pyridine-7-Carboxamides 704” (ASTRAZENECA AB, priority 2007, published 2010).
pKi: −log10 of the molar value. Structures can show the parent of a compound that is named as a salt.

Target: T1, recombinant human GSK3β (Homo sapiens, UniProt P49841)
T1 construct: purchased Dundee University, UK
Experiment: GSK3β Scintillation Proximity Assay (ATP competition)
Assay type: biochemical
Conditions: SPA, 1 μM ATP, 1 μM biotinylated peptide substrate; Ki calculated with Km of ATP 20 μM
Description: Determination of ATP Competition in Scintillation Proximit), GSK3β Assay.
GSK3β Scintillation Proximity Assay.
The competition experiments were carried out in duplicate with 10 different concentrations of the inhibitors in clear-bottom microtiter plates (Wallac, Finland). A biotinylated peptide substrate, Biotin-Ala-Ala-Glu-Glu-Leu-Asp-Ser-Arg-Ala-Gly-Ser(PO3H2)-Pro-Gln-Leu (AstraZeneca, Lund), was added at a final concentration of 1 μM in an assay buffer containing 1 mU recombinant human GSK3β (Dundee University, UK), 12 mM morpholinepropanesulfonic acid (MOPS), pH 7.0, 0.3 mM EDTA, 0.01% β-mercaptorethanol, 0.004% Brij 35 (a […] detergent), 0.5% glycerol and 0.5 μg BSA/25 μl. The reaction was initiated by the addition of 0.04 μCi [γ-^33P]ATP (Amersham, UK) and unlabelled ATP at a final concentration of 1 μM and assay volume of 25 μl. After incubation for 20 minutes at room temperature, each reaction was terminated by the addition of 25 μl stop solution containing 5 mM EDTA, 50 μM ATP, 0.1% Triton X-100 and 0.25 mg streptavidin coated Scintillation Proximity Assay (SPA) beads (Amersham, UK). After 6 hours the radioactivity was determined in a liquid scintillation counter (1450 MicroBeta Trilux, Wallac). The inhibition curves were analysed by non-linear regression using GraphPad Prism, USA. The Km value of ATP for GSK3β, used to calculate the inhibition constants (Ki) of the various compounds, was 20 μM.

T1 sequence (P49841 whole entry): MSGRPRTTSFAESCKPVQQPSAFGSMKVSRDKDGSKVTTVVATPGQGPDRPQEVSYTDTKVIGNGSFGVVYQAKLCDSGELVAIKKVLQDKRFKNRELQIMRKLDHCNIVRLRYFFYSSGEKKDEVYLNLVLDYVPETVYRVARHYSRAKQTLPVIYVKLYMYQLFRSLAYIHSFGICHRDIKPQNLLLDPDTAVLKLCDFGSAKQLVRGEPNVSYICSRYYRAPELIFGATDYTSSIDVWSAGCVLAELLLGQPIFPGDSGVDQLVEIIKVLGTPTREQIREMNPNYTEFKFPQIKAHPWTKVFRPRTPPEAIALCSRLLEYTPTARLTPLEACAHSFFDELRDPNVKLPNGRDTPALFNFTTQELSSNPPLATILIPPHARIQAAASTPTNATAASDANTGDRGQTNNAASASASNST

Row | pKi | SMILES
1 | 6.41 | COCCCNC(=O)c1c(Br)cnc2[nH]c(-c3ccc(CN4CCOCC4)cc3)nc12 [Example 13, 6-Bromo-S-(3-methoxypropyl)-2-[4-(morpholin-4-ylmethyl)phenyl]-3H-imidazo[4,5-b]pyridine-7-carboxamide]
2 | 5.85 | COCCCNC(=O)c1c(Cl)cnc2[nH]c(-c3ccc(CN4CCOCC4)cc3)nc12 [Example 14, 6-Chloro-N-(3-methoxypropyl)-2-[4-(morpholin-4-ylmethyl)phenyl]-3H-imidazo[4,5-b]pyridine-7-carboxamide]
3 | 6.11 | COCCCNC(=O)c1c(F)cnc2[nH]c(-c3ccc(CN4CCOCC4)cc3)nc12 [Example 21, 6-Fluoro-N-(3-methoxypropyl)-2-[4-(morpholin-4-ylmethyl)phenyl]-3H-imidazo[4,5-b]pyridine-7-carboxamide hydrochloride]
